Assay results from a melting point compilation (Tetko et al.; mined from patent text by program, amines drawn as free bases though some values may be those of a salt).

SMILES	melting point [°C]
COc1ccc(-c2nc3cnccc3[nH]2)c(OCCCCl)c1	174 to 176
O=C(OCc1cc(COC(=O)c2ccc(O)c(F)c2)cc(COC(=O)c2ccc(O)c(F)c2)c1)c1ccc(O)c(F)c1	88
COc1ccc(Oc2ccccc2-c2cn(C(C)(C)C)c(N)c2C#N)cc1	171 to 172
CN1CCSC1=NCN1C(=O)CCC1=O	142 to 144
CC(O)(CCCl)c1ccc(-c2cccc(Cl)c2)cc1 (centres undefined)	98 to 100
Nc1cc(-c2ccccc2CCN2CCN(c3nccn3-c3ccccc3)CC2)ccn1	140 to 142
CCCCCC(C)C(C)c1cc(O)cc(OC(NC(C)=O)c2ccccc2)c1 (centres undefined)	196 to 199
CCCCCC(=O)CCCCc1ccc(O)c(O)c1	76 to 78
CCNc1cc(C)nc(Oc2c(C)cc(C)cc2C)c1C	115 to 116
O=C(O)CCC(=O)c1ccc(N2CCOCC2)cc1	167 to 168
Cc1nc(NC(=O)c2cnn3c(C(F)F)cc(-c4ccc(C(F)(F)F)cc4)nc23)sc1S(=O)(=O)N(CCO)CCO	191
CC(C)(c1ccc(Oc2cccc(N)c2)cc1)c1ccc(Oc2cccc(N)c2)cc1	106 to 108
CN(c1cccc2cc(-c3ncc(CCl)s3)[nH]c12)S(=O)(=O)c1cccs1	204 to 205
CCOC(=O)C(c1ccc(Nc2nc(-c3cccc(NC(=O)c4ccc(C(C)(C)C)cc4)c3C)cn(C)c2=O)cc1)N(C)C(C)C (centres undefined)	119 to 120
Cc1nc(N2CCN(Cc3ccc(Cl)cc3)C2=O)sc1C(=O)NCc1cccnc1	178 to 179
Cc1nc2c(OCc3ccccc3)cc(CO)cc2n1C	213 to 214
CCOC(=O)c1c(Br)cnn1-c1c(Cl)cccc1Cl	62 to 65
CCN(CC)C(=O)Nc1ccc(S(=O)(=O)N2C(=O)C(NCCCCCNC(C)=O)(c3ccccc3Cl)c3cc(Cl)ccc32)cc1 (centres undefined)	195 to 198
CC(C)c1cccc(S(=O)(=O)n2c(CCCC(=O)O)cc3cc(Cl)ccc32)c1	128
CSC1=NC(c2cccc([N+](=O)[O-])c2)C2=C(COC2=O)N1 (centres undefined)	204 to 206
CNC(=S)c1cnn(-c2cccc(Cl)c2)c1Cl	128 to 130
CC(=O)C(=Cc1ccc(S(=O)(=O)c2ccccc2)cc1)C(C)=O	102 to 105
CON1C(C)(C)CC(OC(=O)c2ccccc2)CC1(C)C	67 to 68

SMILES	melting point [°C]
CCCCn1ccc(-c2ccc(Oc3cc(C)nc(C)c3)cc2F)c(C#N)c1=O	170
O=C1N=C(N2CCOCC2)SC1=Cc1ccc(F)c(-c2ccc(O)c(C34CC5CC(CC(C5)C3)C4)c2)c1	338 to 343
COC(=O)c1sc(-c2ccccc2)c(N)c1N	148 to 150
CCOC(=O)CCCN1CCn2nc(C(=O)O)cc2C1=O	175
COc1cc(Nc2c(C#N)cnc3ccc(/C=C/CCN4CCOCC4)cc23)c(Cl)cc1Cl	95 to 96
CC(C)(C)C1Cc2cc(N3C[C@H](CO)OC3=O)ccc2N1C(=O)OCc1ccccc1 (some centres undefined)	141 to 149
CCCc1nc2c(N)nc3cc(OCCCN4CCCS4(=O)=O)ccc3c2n1CC(C)C	142 to 144
CC(C)(C)OC(=O)NC(C(=O)O)C1=CSCCO1 (centres undefined)	160
CC(C)(C)c1cc(OCCCCC#N)cc(C(C)(C)C)c1	61 to 64
CC(C)Cn1cnc2c(O)nc3ccccc3c21	> 300
CC(C)(C)c1cc(CCc2n[nH]c(=S)o2)cc(C(C)(C)C)c1O	164 to 166
CC(C)(C)OC(=O)N1C[C@H]2[C@@H](C1)C(c1ccccc1)(c1ccccc1)CC[C@@H]2O	190
Cc1cn(-c2ccc(N3C[C@H](CO)OC3=O)cc2F)cn1	151 to 153
c1ccc(NCc2nccc(-c3ccc(-c4ccc(N(c5ccccc5)c5ccccc5)cc4)cc3)n2)cc1	200 to 201
COC1C(NC(=O)C(F)(F)F)CC(O)OC1C (centres undefined)	185
CC(=O)c1cc2c(cc1Cl)C(C)(C)CC2(C)C	69 to 71
CCOC(=O)c1cnc2ccnn2c1O	81
O=C1Cc2cc(F)c(Cl)cc2N1	196 to 206
CCCc1nc2c(N)nc3cc(OCc4cccc(C)c4)ccc3c2n1CC(C)C	200 to 203
CNC(=S)C1=C(O)C(C)(COC)Oc2ccc([N+](=O)[O-])cc21 (centres undefined)	139 to 141
COc1ccccc1N1CCN(CCCNC(=O)c2cccc3c(=O)c(C)c(-c4cccc([N+](=O)[O-])c4)oc23)CC1	135 to 137
O=C1c2c(-c3ccccc3)cc(CCl)nc2OCCN1Cc1cc(C(F)(F)F)cc(C(F)(F)F)c1	183 to 184
CCCOc1cccc(C2(c3cc(C(=O)CC)n(CC)c3)N=C(N)N(C)C2=O)c1 (centres undefined)	95

SMILES	melting point [°C]
CCn1cnc2c(Nc3ccccc3)nc(Cl)nc21	158
O=C(O)C(CCc1ccccc1)NS(=O)(=O)c1ccc2sc3ccccc3c2c1 (centres undefined)	148 to 151
COc1ccc(N2CCN(c3c(C)c(C)c4c(c3C)C(c3ccc(C)cn3)C(C)(C)O4)CC2)cc1 (centres undefined)	186 to 187
COc1cc(C(=S)N2CCNCC2)cc(OC)c1OC	116 to 118
CC[C@@H](c1ccccc1)N(Cc1ccc(C(=O)O)c(F)c1F)S(=O)(=O)c1ccc(Cl)cc1	127 to 129
CCOC(=O)/C=C(C)/C=C/C(Br)=C(/C)c1ccc2c(c1)C(C)(C)CCC2(C)C	97 to 98.5
O=c1[nH]c2cc(-n3cccc3)c([N+](=O)[O-])cc2n(C2CCCCC2)c1=O	197
COC(=O)c1ccc(Cn2c(C=Cc3ccc(OC)c(OC)c3)nc3c(OC)c(C)c(C)c(OC)c32)cc1	111 to 114
O=C(c1cc2ccccc2s1)C1CCN(CCc2ccccc2)CC1	129 to 130
CC1=C(C)C[C@H]2C(=O)CC(=O)[C@H]2C1	157 to 158
CC(C)(C)CC(=O)c1c(-c2ccc3c(Br)c(OCC(=O)O)ccc3c2)oc2ccccc12	151 to 153
COc1cc(CN(O)C(N)=O)ccc1OCc1nc(-c2ccccc2)oc1C	138 to 139
Nc1ncnc2c1c(-c1ccc(Oc3ccccc3)cc1)cn2S(=O)(=O)C1CCCC1	188
CS(=O)(=O)On1c(=O)c2cc3c(=O)n(OS(C)(=O)=O)c(=O)c3cc2c1=O	> 300
CC(C#N)(c1ccccc1)c1ccc(Cl)nn1 (centres undefined)	116 to 118
CCCCSc1nc(CCC)n(Cc2ccc(-c3ccccc3S(=O)(=O)NC(=O)NCc3ccccc3)cc2)c1C(=O)C(=O)O	192
CCCCCC(=O)OC1(c2nc(OC)cc(OC)n2)OC(=O)c2c(Cl)ccc(Cl)c21 (centres undefined)	103 to 105
Cc1cc(=O)n2cccc(OCC=Cc3ccccc3)c2n1	154 to 155
Cc1cc(C)nc(N2CC=C(N)N2)n1	205
C#Cc1ccc2c(c1)c(=O)c(C(=O)OCC)cn2CC	185 to 187
CSc1ccc(C(=O)Nc2ccc3ccc(Cl)nc3n2)s1	235
CCS(=O)(=O)CCC(=O)NNC(=O)N1Cc2ccccc2Oc2ccc(F)cc21	191 to 193
CCNc1cnc(-c2ccccc2)c(-c2ccccc2)n1	121 to 123
